Experimental data published in patent publication US11414395B2, “Heterocyclic compounds as modulators of mGluR7” (PRAGMA Therapeutics, priority 2017, dated 2022).

Each molecule was assayed against human mGluR7 (Homo sapiens (Human), UniProt Q14831) (assay: Inositol monophosphate production assay (IP1 assay), inhibition of L-AP4 response). Settings: mean IC50 from at least two independent experiments; HEK293 cells transiently transfected with mGluR7, Gqtop and EAAC1; IP1 production vs EC80 L-AP4.
Sequence of human mGluR7 (Q14831 35-915): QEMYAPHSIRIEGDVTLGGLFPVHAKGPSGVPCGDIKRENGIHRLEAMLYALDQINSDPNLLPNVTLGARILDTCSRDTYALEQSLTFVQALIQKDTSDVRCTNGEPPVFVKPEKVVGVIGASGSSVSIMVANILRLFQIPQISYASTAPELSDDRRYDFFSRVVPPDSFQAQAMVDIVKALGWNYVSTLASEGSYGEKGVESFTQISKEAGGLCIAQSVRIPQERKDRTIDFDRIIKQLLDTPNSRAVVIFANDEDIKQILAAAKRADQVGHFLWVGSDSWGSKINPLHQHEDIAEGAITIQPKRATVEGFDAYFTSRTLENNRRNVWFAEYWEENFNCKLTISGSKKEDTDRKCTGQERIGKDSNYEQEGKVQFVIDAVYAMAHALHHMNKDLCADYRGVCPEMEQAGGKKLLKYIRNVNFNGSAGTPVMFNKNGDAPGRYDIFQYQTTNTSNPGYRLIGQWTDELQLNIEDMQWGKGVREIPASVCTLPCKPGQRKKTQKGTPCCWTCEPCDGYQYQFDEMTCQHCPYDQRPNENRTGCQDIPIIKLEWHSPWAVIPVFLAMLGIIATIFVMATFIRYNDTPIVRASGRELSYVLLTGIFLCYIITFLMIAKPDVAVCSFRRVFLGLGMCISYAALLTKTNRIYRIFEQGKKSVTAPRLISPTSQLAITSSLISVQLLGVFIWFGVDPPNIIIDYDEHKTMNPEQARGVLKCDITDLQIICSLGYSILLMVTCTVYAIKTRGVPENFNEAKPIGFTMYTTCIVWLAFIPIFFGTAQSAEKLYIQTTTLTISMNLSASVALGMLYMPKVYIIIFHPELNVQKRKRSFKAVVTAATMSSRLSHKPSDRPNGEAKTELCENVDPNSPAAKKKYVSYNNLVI
Format: cell-based
In short: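 HEK293 cells transiently co-expressing mGluR7, chimeric Gq/Gi (Gqtop) and EAAC1, switched to Glutamax medium 3 h before stimulation. IP1 measured by competitive HTRF; inhibition of an EC80-equivalent L-AP4 response, triplicate points, four-parameter fit to log IC50, mean of ≥2 experiments.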
With Cc1ccc(C2CCc3c(cnn(-c4ncc(Cl)cn4)c3=O)C2)c(C)c1 (centres unmarked) [Example 51, 2-(5-chloropyrimidin-2-yl)-6-(2,4-dimethylphenyl)-5,6,7,8-tetrahydrophthalazin-1(2H)-one] the IC50 was less than 500 nM.
Molecule COc1cccc(C2CCc3c(cnn(-c4ncc(C)cn4)c3=O)C2)c1Cl (single isomer, unassigned; (+)) [Example 135, (+)-6-(2-chloro-3-methoxyphenyl)-2-(5-methylpyrimidin-2-yl)-5,6,7,8-tetrahydrophthalazin-1(2H)-one] has an IC50 of 500 to 1000 nM.
Molecule Cc1ccc(C2Cc3cnn(-c4ccccn4)c(=O)c3C2)c(C)c1 (centres unmarked) [Example 121, 6-(2,4-dimethylphenyl)-2-(pyridin-2-yl)-2,5,6,7-tetrahydro-1H-cyclopenta[d]-pyridazin-1-one] has an IC50 of 1000 to 30000 nM.
Molecule COc1cccc(C2CCc3c(cnn(-c4ncc(C)cn4)c3=O)C2)c1Cl (centres unmarked) [Example 94, 6-(2-chloro-3-methoxyphenyl)-2-(5-methylpyrimidin-2-yl)-5,6,7,8-tetrahydrophthalazin-1(2H)-one] has an IC50 of less than 500 nM.
Cc1cnc(-n2ncc3c(c2=O)CCC(c2ccc(C)cc2C)C3)nc1 (centres unmarked) [Example 52, 6-(2,4-dimethylphenyl)-2-(5-methylpyrimidin-2-yl)-5,6,7,8-tetrahydrophthalazin-1(2H)-one] showed an IC50 of less than 500 nM.
In the case of Cc1ccc(C2CCc3c(cnn(-c4ncccn4)c3=O)C2)c(C)c1 (centres unmarked) [Example 29, 6-(2,4-dimethylphenyl)-2-(pyrimidin-2-yl)-5,6,7,8-tetrahydrophthalazin-1(2H)-one], the IC50 was less than 500 nM.
With Cc1ccc(C2CCc3c(cnn(-c4ccncc4)c3=O)C2)c(C)c1 (centres unmarked) [Example 50, 6-(2,4-dimethylphenyl)-2-(pyridin-4-yl)-5,6,7,8-tetrahydrophthalazin-1(2H)-one] the IC50 was less than 500 nM.
COc1cccc(C2CCc3c(cnn(-c4ccc(CO)cn4)c3=O)C2)c1C (centres unmarked) [Example 39, 2-(5-(hydroxymethyl)pyridin-2-yl)-6-(3-methoxy-2-methylphenyl)-5,6,7,8-tetrahydrophthalazin-1(2H)-one] showed an IC50 of less than 500 nM.
With Cc1ccc(C2CCc3c(cnn(-c4cnccn4)c3=O)C2)c(C)c1 (centres unmarked) [Example 30, 6-(2,4-dimethylphenyl)-2-(pyrazin-2-yl)-5,6,7,8-tetrahydrophthalazin-1(2H)-one] the IC50 was less than 500 nM.
For COc1ccc(F)c(C2CCc3c(cnn(-c4ncccn4)c3=O)C2)c1 (centres unmarked) [Example 74, 6-(2-fluoro-5-methoxyphenyl)-2-(pyrimidin-2-yl)-5,6,7,8-tetrahydrophthalazin-1(2H)-one], the IC50 was less than 500 nM.
For Cc1ccc(C2CCc3c(cnn(-c4ncc(C(F)(F)F)cn4)c3=O)C2)c(C)c1 (centres unmarked) [Example 55, 6-(2,4-dimethylphenyl)-2-(5-(trifluoromethyl)pyrimidin-2-yl)-5,6,7,8-tetrahydrophthalazin-1(2H)-one], the IC50 was less than 500 nM.
Molecule COc1cccc(C2CCc3c(cnn(-c4ncc(C5CC5)cn4)c3=O)C2)c1C (centres unmarked) [Example 125, 2-(5-cyclopropylpyrimidin-2-yl)-6-(3-methoxy-2-methylphenyl)-5,6,7,8-tetrahydrophthalazin-1(2H)-one] has an IC50 of less than 500 nM.
In the case of Cc1ccnc(-n2ncc3c(c2=O)CCC(c2ccc(C)cc2C)C3)c1 (centres unmarked) [Example 19, 6-(2,4-dimethylphenyl)-2-(4-methylpyridin-2-yl)-5,6,7,8-tetrahydrophthalazin-1(2H)-one], the IC50 was less than 500 nM.
In the case of COc1cccc(-n2ncc3c(c2=O)CCC(c2ccc(C)cc2C)C3)n1 (centres unmarked) [Example 13, 6-(2,4-dimethylphenyl)-2-(6-methoxypyridin-2-yl)-5,6,7,8-tetrahydrophthalazin-1(2H)-one], the IC50 was less than 500 nM.
Cc1ccc(C2CCc3c(cnn(-c4ccccn4)c3=O)C2)c(C)c1 (single isomer, unassigned; (-)) [Example 4, (−)-6-(2,4-dimethyl-phenyl)-2-pyridin-2-yl-5,6,7,8-tetrahydro-2H-phthalazin-1-one] showed an IC50 of 1000 to 30000 nM.
In the case of COc1cc(C)ccc1C1CCc2c(cnn(-c3ccccn3)c2=O)C1 (centres unmarked) [Example 67, 6-(2-methoxy-4-methylphenyl)-2-(pyridin-2-yl)-5,6,7,8-tetrahydrophthalazin-1(2H)-one], the IC50 was 500 to 1000 nM.
O=c1c2c(cnn1-c1ncccn1)CC(c1cccc(OC3CC3)c1Cl)CC2 (single isomer, unassigned; (-)) [Example 130, (−)-6-(2-chloro-3-cyclopropoxyphenyl)-2-(pyrimidin-2-yl)-5,6,7,8-tetrahydrophthalazin-1(2H)-one] was tested, and the IC50 was less than 500 nM.
For Cc1ccc(C2CCc3c(cnn(-c4ccccn4)c3=O)C2)c(C)c1 (centres unmarked) [Example 1, 6-(2,4-dimethyl-phenyl)-2-pyridin-2-yl-5,6,7,8-tetrahydro-2H-phthalazin-1-one], the IC50 was less than 500 nM.
COc1ccc(C)c(C2CCc3c(cnn(-c4ncc(C5CC5)cn4)c3=O)C2)c1 (centres unmarked) [Example 107, 2-(5-cyclopropylpyrimidin-2-yl)-6-(5-methoxy-2-methylphenyl)-5,6,7,8-tetrahydrophthalazin-1(2H)-one] was tested, and the IC50 was 500 to 1000 nM.
O=c1c2c(cnn1-c1ncccn1)CC(c1cccc3c1ccn3C1CC1)CC2 (single isomer, unassigned; (-)) [Example 139, (−)-6-(1-cyclopropyl-1H-indol-4-yl)-2-(pyrimidin-2-yl)-5,6,7,8-tetrahydrophthalazin-1(2H)-one] showed an IC50 of less than 500 nM.
For COc1c(C)cccc1C1CCc2c(cnn(-c3ccccn3)c2=O)C1 (centres unmarked) [Example 68, 6-(2-methoxy-3-methylphenyl)-2-(pyridin-2-yl)-5,6,7,8-tetrahydrophthalazin-1(2H)-one], the IC50 was 500 to 1000 nM.
Work on Cc1c(C2CCc3c(cnn(-c4ncccn4)c3=O)C2)cccc1N(C)C (centres unmarked) [Example 96, 6-(3-(dimethylamino)-2-methylphenyl)-2-(pyrimidin-2-yl)-5,6,7,8-tetrahydrophthalazin-1(2H)-one] yielded an IC50 of less than 500 nM.
CC(=O)Nc1cnc(-n2ncc3c(c2=O)CCC(c2cccc(OC4CC4)c2C)C3)nc1 (centres unmarked) [Example 127, N-(2-(6-(3-cyclopropoxy-2-methylphenyl)-1-oxo-5,6,7,8-tetrahydrophthalazin-2(1H)-yl)pyrimidin-5-yl)acetamide] showed an IC50 of less than 500 nM.
Molecule COc1cccc(C2CCc3c(cnn(-c4ncccn4)c3=O)C2)c1Cl (centres unmarked) [Example 72, 6-(2-chloro-3-methoxyphenyl)-2-(pyrimidin-2-yl)-5,6,7,8-tetrahydrophthalazin-1(2H)-one] has an IC50 of less than 500 nM.
Work on Cc1ccc(C2CCc3c(cnn(-c4ncccc4Cl)c3=O)C2)c(C)c1 (centres unmarked) [Example 8, 2-(3-chloropyridin-2-yl)-6-(2,4-dimethylphenyl)-5,6,7,8-tetrahydrophthalazin-1(2H)-one] yielded an IC50 of less than 500 nM.
Work on Cc1ccc2c(cnn2C)c1C1CCc2c(cnn(-c3ncccn3)c2=O)C1 (centres unmarked) [Example 88, 6-(1,5-dimethyl-1H-indazol-4-yl)-2-(pyrimidin-2-yl)-5,6,7,8-tetrahydrophthalazin-1(2H)-one] yielded an IC50 of 1000 to 30000 nM.
Work on O=c1c2c(cnn1-c1ncccn1)CC(c1cccc3c1CCN3C1CC1)CC2 (centres unmarked) [Example 92, 6-(1-cyclopropylindolin-4-yl)-2-(pyrimidin-2-yl)-5,6,7,8-tetrahydrophthalazin-1(2H)-one] yielded an IC50 of less than 500 nM.
Work on COc1ccnc(-n2ncc3c(c2=O)CCC(c2ccc(C)cc2C)C3)c1 (centres unmarked) [Example 15, 6-(2,4-dimethylphenyl)-2-(4-methoxypyridin-2-yl)-5,6,7,8-tetrahydrophthalazin-1(2H)-one] yielded an IC50 of less than 500 nM.
In the case of Cc1c(OCC2CC2)cccc1C1CCc2c(cnn(-c3ncccn3)c2=O)C1 (centres unmarked) [Example 102, 6-(3-(cyclopropylmethoxy)-2-methylphenyl)-2-(pyrimidin-2-yl)-5,6,7,8-tetrahydrophthalazin-1(2H)-one], the IC50 was 500 to 1000 nM.
